# ChEMBL document CHEMBL5715949, “Discovery of a selective irreversible BMX inhibitor for prostate cancer” (ACS Chem Biol, 2013)
# Calls of active or inactive are those of the source. The calls are words filed in the database; no cut-off is given here.
# Assays:
# [1] = target: Phosphatidylinositol 4,5-bisphosphate 3-kinase catalytic subunit alpha isoform (Homo sapiens) (UniProt P42336); assay: Inhibition of PIK3CA (unknown origin) assessed as remaining activity at 1 uM by Kinome scan method relative to control
# [2] = target: Phosphorylase b kinase gamma catalytic chain, skeletal muscle/heart isoform (Homo sapiens) (UniProt Q16816); assay: Inhibition of PHKG1 (unknown origin) assessed as remaining activity at 1 uM by Kinome scan method relative to control
# DU-145 = assay: Antiproliferative activity against human DU-145 cells assessed growth inhibition incubated for 2 to 5 days by CellTiter-Glo assay; assay type: functional; details: time 2-5 day
# [3] = test system: Tyrosine-protein kinase ABL1 (Homo sapiens), P00519 [F317I]; assay: Inhibition of ABL1 F317I mutant (unknown origin) assessed as remaining activity at 1 uM by Kinome scan method relative to control
# [4] = target: Cyclin-dependent kinase 5 (Homo sapiens) (UniProt Q00535); assay: Inhibition of CDK5 (unknown origin) assessed as remaining activity at 1 uM by Kinome scan method relative to control
# [5] = target: Cyclin-dependent kinase 7 (Homo sapiens) (UniProt P50613); assay: Inhibition of CDK7 (unknown origin) assessed as remaining activity at 1 uM by Kinome scan method relative to control
# [6] = target: Cyclin-dependent kinase 8 (Homo sapiens) (UniProt P49336); assay: Inhibition of CDK8 (unknown origin) assessed as remaining activity at 1 uM by Kinome scan method relative to control
# [7] = target: Cyclin-dependent kinase-like 2 (Homo sapiens) (UniProt Q92772); assay: Inhibition of CDKL2 (unknown origin) assessed as remaining activity at 1 uM by Kinome scan method relative to control
# [8] = target: Macrophage colony-stimulating factor 1 receptor (Homo sapiens) (UniProt P07333); assay: Inhibition of CSF1R (unknown origin) assessed as remaining activity at 1 uM by Kinome scan method relative to control
# [9] = target: Ephrin type-A receptor 6 (Homo sapiens) (UniProt Q9UF33); assay: Inhibition of EPHA6 (unknown origin) assessed as remaining activity at 1 uM by Kinome scan method relative to control
# [10] = target: Mitogen-activated protein kinase 1 (Homo sapiens) (UniProt P28482); assay: Inhibition of ERK2 (unknown origin) assessed as remaining activity at 1 uM by Kinome scan method relative to control
# [11] = target: Fibroblast growth factor receptor 1 (Homo sapiens) (UniProt P11362); assay: Inhibition of FGFR1 (unknown origin) assessed as remaining activity at 1 uM by Kinome scan method relative to control
# [12] = target: Tyrosine-protein kinase JAK1 (Homo sapiens) (UniProt P23458); assay: Inhibition of JAK1 JH1 domain (unknown origin) assessed as remaining activity at 1 uM by Kinome scan method relative to control
# [13] = target: Mitogen-activated protein kinase 8 (Homo sapiens) (UniProt P45983); assay: Inhibition of JNK1 (unknown origin) assessed as remaining activity at 1 uM by Kinome scan method relative to control
# [14] = target: Serine/threonine-protein kinase STK11 (Homo sapiens) (UniProt Q15831); assay: Inhibition of LKB1 (unknown origin) assessed as remaining activity at 1 uM by Kinome scan method relative to control
# [15] = target: Serine/threonine-protein kinase 10 (Homo sapiens) (UniProt O94804); assay: Inhibition of LOK (unknown origin) assessed as remaining activity at 1 uM by Kinome scan method relative to control
# [16] = target: Serine/threonine-protein kinase MARK2 (Homo sapiens) (UniProt Q7KZI7); assay: Inhibition of MARK2 (unknown origin) assessed as remaining activity at 1 uM by Kinome scan method relative to control
# [17] = target: Serine/threonine-protein kinase PLK2 (Homo sapiens) (UniProt Q9NYY3); assay: Inhibition of PLK2 (unknown origin) assessed as remaining activity at 1 uM by Kinome scan method relative to control
# [18] = target: Rho-associated protein kinase 2 (Homo sapiens) (UniProt O75116); assay: Inhibition of ROCK2 (unknown origin) assessed as remaining activity at 1 uM by Kinome scan method relative to control
# [19] = target: Ribosomal protein S6 kinase alpha-4 (Homo sapiens) (UniProt O75676); assay: Inhibition of N-terminal kinase domain RPS6KA4 (unknown origin) assessed as remaining activity at 1 uM by Kinome scan method relative to control
# [20] = target: Mitogen-activated protein kinase kinase kinase 7 (Homo sapiens) (UniProt O43318); assay: Inhibition of TAK1 (unknown origin) assessed as remaining activity at 1 uM by Kinome scan method relative to control
# [21] = target: TGF-beta receptor type-1 (Homo sapiens) (UniProt P36897); assay: Inhibition of TGFBR1 (unknown origin) assessed as remaining activity at 1 uM by Kinome scan method relative to control
# [22] = target: Tyrosine-protein kinase ZAP-70 (Homo sapiens) (UniProt P43403); assay: Inhibition of ZAP70 (unknown origin) assessed as remaining activity at 1 uM by Kinome scan method relative to control
# RV-1 [23] = assay: Induction of apoptosis in human RV-1 cells assessed as increase in cleaved caspase-3 protein expression at 5 uM incubated for 3 days by immunostaining analysis; assay type: functional, cell-based; details: time 3.0 day
# RV-1 [24] = assay: Down regulation of BMX protein expression in human RV-1 cells expressing BMX C496S mutant at 5 uM incubated for 72 hrs by western blot analysis; assay type: functional, cell-based
# RV-1 [25] = assay: Antiproliferative activity against human RV-1 cells assessed as reduction in cell viability at 500 to 2500 nM incubated for 5 days in presence of Torin2 by CellTiter-Glo assay; assay type: functional, cell-based; details: dose 500-2500 nM, time 5.0 day
# RV-1 [26] = assay: Antiproliferative activity against human RV-1 cells assessed as reduction in cell viability at 500 to 2500 nM incubated for 5 days in presence of lapatinib by CellTiter-Glo assay; assay type: functional, cell-based; details: dose 500-2500 nM, time 5.0 day
# RV-1 [27] = assay: Induction of apoptosis in human RV-1 cells at 2.5 uM incubated for 5 days in presence of […] by propidium iodide staining based flow cytometric analysis; assay type: functional, cell-based; details: time 5.0 day
# [28] = Inhibition of PI3K/AKT/mTOR signalling pathway in human RV-1 cells assessed as decrease in 4EBP phosphorylation at T37/46 residue at 2.5 uM incubated for 4 hrs by immunoblot analysis; assay type: cell-based
# RV-1 [29] = assay: Inhibition of MAPK signalling pathway in human RV-1 cells assessed as decrease in ERK1/2 phosphorylation at T202/204 residue at 2.5 uM incubated for 4 hrs by immunoblot analysis; assay type: cell-based
# [30] = Inhibition of PI3K/AKT/mTOR signalling pathway in human RV-1 cells assessed as decrease in AKT phosphorylation at T308 residue at 2.5 uM incubated for 5 days by immunoblot analysis; assay type: cell-based; details: time 5.0 day
# [31] = Inhibition of PI3K/AKT/mTOR signalling pathway in human RV-1 cells assessed as decrease in S6K phosphorylation at T389 residue at 2.5 uM incubated for 5 days by immunoblot analysis; assay type: cell-based; details: time 5.0 day
# [32] = Inhibition of PI3K/AKT/mTOR signalling pathway in human RV-1 cells assessed as decrease in 4EBP phosphorylation at T37/46 residue at 2.5 uM incubated for 5 days in presence of MK2206 by immunoblot analysis; assay type: cell-based; details: time 5.0 day
# Tyrosine-protein kinase ZAP-70 (Homo sapiens), sequence (P43403 whole entry): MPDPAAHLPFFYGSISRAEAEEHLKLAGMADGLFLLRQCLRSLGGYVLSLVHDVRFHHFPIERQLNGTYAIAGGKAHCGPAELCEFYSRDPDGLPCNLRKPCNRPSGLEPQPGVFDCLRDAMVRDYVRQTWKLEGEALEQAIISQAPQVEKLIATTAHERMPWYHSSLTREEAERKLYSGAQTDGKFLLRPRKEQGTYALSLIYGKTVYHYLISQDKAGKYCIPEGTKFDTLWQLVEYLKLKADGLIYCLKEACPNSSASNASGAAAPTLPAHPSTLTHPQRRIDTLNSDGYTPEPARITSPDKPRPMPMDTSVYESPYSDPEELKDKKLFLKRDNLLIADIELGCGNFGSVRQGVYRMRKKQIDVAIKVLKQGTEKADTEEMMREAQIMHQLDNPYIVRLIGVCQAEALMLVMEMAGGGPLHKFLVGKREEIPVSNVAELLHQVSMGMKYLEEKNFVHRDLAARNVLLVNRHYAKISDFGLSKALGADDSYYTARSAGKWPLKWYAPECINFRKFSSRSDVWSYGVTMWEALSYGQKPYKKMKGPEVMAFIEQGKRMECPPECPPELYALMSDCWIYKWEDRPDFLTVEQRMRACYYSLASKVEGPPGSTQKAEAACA
# Phosphatidylinositol 4,5-bisphosphate 3-kinase catalytic subunit alpha isoform (Homo sapiens), sequence (P42336 whole entry, canonical isoform): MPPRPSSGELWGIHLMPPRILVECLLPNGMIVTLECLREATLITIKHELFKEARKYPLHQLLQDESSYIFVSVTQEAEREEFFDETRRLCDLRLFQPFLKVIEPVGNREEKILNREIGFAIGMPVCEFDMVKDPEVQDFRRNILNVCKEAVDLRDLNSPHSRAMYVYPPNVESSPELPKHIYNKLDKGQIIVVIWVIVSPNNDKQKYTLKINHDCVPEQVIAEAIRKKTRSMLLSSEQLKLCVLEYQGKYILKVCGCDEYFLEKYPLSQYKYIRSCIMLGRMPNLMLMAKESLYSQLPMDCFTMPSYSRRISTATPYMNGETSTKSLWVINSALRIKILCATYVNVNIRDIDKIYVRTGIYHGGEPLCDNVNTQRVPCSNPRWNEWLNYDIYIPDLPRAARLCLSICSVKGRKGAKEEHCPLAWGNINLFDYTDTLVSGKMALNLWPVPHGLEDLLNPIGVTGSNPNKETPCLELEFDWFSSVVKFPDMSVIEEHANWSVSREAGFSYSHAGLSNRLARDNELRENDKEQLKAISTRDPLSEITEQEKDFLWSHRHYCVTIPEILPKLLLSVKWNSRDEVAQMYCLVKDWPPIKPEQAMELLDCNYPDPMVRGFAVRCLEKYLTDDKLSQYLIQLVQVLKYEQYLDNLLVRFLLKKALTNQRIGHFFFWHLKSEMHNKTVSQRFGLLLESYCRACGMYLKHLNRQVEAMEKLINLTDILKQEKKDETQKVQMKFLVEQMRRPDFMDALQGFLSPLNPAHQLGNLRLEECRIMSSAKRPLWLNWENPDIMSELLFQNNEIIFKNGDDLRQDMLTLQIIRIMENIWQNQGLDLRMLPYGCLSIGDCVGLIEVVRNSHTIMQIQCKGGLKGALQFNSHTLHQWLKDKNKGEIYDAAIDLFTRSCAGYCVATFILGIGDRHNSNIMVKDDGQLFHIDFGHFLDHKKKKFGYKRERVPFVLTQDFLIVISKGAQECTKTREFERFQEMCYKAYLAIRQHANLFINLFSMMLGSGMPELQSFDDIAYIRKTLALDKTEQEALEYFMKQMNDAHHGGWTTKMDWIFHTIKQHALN
# TGF-beta receptor type-1 (Homo sapiens), sequence (P36897 whole entry): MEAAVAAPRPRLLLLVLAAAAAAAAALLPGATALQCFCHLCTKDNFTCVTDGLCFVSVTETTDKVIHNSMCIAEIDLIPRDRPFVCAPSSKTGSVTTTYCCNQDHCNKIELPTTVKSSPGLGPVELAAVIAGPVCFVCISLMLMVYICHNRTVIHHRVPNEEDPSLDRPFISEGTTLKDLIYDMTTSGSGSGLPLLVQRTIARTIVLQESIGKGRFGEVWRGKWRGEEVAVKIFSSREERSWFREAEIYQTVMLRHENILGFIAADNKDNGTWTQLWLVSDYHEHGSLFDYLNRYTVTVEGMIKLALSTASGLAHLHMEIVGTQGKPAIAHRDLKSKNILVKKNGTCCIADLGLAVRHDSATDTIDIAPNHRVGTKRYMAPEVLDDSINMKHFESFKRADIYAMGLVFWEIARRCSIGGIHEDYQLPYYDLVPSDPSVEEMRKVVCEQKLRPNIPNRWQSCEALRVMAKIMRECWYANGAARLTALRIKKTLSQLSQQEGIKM
# Serine/threonine-protein kinase MARK2 (Homo sapiens), sequence (Q7KZI7 whole entry): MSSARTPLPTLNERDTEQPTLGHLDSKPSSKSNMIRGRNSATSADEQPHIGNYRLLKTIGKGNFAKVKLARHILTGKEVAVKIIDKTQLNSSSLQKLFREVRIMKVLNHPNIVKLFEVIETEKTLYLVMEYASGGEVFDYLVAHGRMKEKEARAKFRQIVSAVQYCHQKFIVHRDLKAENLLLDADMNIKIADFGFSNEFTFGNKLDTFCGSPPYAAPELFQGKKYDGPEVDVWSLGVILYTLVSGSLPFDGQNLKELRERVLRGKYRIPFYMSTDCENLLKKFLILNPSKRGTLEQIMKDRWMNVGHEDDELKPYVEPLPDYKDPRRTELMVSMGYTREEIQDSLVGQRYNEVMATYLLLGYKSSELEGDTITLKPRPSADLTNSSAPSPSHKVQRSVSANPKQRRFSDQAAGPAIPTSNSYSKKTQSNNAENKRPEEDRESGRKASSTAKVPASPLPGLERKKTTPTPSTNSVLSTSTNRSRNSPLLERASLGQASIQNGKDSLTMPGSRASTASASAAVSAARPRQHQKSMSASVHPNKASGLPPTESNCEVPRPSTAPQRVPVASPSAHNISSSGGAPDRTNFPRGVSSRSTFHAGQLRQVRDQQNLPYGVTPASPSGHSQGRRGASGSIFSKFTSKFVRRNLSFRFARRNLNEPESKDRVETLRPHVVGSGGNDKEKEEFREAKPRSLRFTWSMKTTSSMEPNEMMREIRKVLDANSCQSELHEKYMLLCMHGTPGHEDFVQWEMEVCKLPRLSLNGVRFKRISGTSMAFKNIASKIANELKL
# Rho-associated protein kinase 2 (Homo sapiens), sequence (O75116 whole entry, looked up, the tested form may be a part): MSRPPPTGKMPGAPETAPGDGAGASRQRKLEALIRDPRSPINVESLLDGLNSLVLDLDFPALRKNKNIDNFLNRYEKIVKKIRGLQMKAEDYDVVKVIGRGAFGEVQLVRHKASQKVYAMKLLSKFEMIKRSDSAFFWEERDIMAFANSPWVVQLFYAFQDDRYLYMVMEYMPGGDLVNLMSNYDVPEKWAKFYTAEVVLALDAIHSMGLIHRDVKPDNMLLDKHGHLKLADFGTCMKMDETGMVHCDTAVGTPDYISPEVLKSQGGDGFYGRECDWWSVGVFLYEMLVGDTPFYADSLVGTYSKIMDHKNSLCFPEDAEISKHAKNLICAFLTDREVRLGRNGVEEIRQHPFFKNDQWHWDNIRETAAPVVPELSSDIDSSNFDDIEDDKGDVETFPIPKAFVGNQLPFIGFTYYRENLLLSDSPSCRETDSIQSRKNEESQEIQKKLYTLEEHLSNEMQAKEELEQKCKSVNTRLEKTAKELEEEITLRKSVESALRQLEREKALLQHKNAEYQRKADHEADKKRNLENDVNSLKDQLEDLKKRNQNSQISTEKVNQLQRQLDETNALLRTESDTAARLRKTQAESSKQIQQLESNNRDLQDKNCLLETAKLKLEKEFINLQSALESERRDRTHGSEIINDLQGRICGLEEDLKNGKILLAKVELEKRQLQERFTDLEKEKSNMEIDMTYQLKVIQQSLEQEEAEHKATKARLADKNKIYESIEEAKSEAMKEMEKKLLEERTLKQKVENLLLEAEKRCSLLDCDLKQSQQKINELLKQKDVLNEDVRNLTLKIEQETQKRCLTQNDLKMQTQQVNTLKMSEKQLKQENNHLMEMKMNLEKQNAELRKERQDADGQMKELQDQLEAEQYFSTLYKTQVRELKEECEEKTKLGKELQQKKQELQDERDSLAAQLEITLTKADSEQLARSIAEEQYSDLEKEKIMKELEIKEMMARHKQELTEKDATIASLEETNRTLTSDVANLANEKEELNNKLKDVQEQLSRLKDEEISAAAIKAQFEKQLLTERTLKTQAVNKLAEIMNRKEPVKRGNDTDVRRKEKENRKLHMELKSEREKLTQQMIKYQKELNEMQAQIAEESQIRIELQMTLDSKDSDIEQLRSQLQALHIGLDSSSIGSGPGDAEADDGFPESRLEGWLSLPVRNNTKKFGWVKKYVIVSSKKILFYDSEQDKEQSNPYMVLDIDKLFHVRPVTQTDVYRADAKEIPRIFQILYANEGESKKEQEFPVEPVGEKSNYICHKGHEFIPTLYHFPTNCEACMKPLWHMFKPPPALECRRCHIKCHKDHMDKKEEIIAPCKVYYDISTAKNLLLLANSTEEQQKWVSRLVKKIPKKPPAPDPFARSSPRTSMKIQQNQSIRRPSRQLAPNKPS
# Mitogen-activated protein kinase 1 (Homo sapiens), sequence (P28482 whole entry): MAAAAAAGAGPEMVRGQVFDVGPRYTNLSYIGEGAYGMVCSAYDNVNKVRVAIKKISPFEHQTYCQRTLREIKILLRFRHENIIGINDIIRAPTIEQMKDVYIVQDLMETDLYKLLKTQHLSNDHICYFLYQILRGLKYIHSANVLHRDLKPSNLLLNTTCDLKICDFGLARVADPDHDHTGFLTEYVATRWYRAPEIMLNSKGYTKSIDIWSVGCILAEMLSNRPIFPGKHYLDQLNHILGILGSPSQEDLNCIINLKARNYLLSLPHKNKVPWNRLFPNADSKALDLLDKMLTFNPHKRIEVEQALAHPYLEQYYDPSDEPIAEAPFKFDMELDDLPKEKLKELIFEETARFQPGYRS
# Cyclin-dependent kinase 7 (Homo sapiens), sequence (P50613 whole entry): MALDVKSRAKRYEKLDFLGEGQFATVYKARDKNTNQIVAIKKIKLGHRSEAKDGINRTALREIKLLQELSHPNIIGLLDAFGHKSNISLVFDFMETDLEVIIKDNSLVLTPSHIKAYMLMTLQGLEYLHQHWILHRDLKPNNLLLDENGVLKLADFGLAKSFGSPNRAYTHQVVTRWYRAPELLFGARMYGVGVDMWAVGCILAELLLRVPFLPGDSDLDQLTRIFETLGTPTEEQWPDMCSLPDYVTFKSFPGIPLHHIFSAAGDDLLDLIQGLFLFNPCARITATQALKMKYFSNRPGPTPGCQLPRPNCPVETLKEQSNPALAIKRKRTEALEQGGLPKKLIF
structure (smiles),measurement,setting,value
C=CC(=O)Nc1cc(-n2c(=O)ccc3cnc4ccc(-c5ccc(NS(C)(=O)=O)cc5)cc4c32)ccc1C,Activity,[1],68%
same,Activity,[2],86%
same,GI50,DU-145,4.38 µM
same,Activity,[3],81%
same,Activity,[4],88%
same,Activity,[5],79%
same,Activity,[6],76%
same,Activity,[7],93%
same,Activity,[8],94%
same,Activity,[9],96%
same,Activity,[10],94%
same,Activity,[11],92%
same,Activity,[12],87%
same,Activity,[13],93%
same,Activity,[14],79%
same,Activity,[15],87%
same,Activity,[16],94%
same,Activity,[17],72%
same,Activity,[18],87%
same,Activity,[19],67%
same,Activity,[20],83%
same,Activity,[21],97%
same,Activity,[22],91%
same,Activity,RV-1 [23],Active
same,Activity,RV-1 [24],Active
same,Activity,RV-1 [25],Active
same,Activity,RV-1 [26],Active
same,Activity,RV-1 [27],Active
same,inhibition,[28],inactive
same,inhibition,RV-1 [29],inactive
same,inhibition,[30],Active
same,inhibition,[31],Active
same,inhibition,[32],Active
